Here are results for 2 compounds from patent publication US20230286995A1, “METABOLICALLY STABLE PYRIMIDINYL DIHYDROQUINOXALINONES AS TUBULIN POLYMERIZATION INHIBITORS” (UNIVERSITY OF TENNESSEE RESEARCH FOUNDATION, priority 2022, published 2023).

One series concerns PANC-1-Luc xenografts. The series can be described thus: PANC-1-Luc subcutaneous xenograft model. The format is in vivo, NSG mice. The protocol:
All animal procedures were performed in accordance with the protocols approved by the Institutional Animal Care and Use Committee (IACUC) at UTHSC. Two pancreatic cancer cell lines, Mia PaCa-2-Luc and PANC-1-Luc, were used in this study. 50 μL of Mia PaCa-2-Luc (5×10^6 cells in HBSS) or PANC-1-Luc (3×10^6 cells in HBSS) cell suspension was mixed with same volume of Matrigel (1:1 mixture) right before use. Cell mixture was subcutaneously injected to the right flank of each NSG mice (male, 6-8 weeks). […] The control group received no treatment. Treatment started when the average tumor size reached 70-100 mm^3. […] Tumor volume and body weight were measured twice per week. Tumor volume was calculated by the equation: volume (mm^3)=0.5×(length×width^2). All animals were euthanized at the end of the study. Tumors were excised, recorded for ex-vivo weight and size, and imaged.

The test system of another series is Mia PaCa-2 cells. The series can be described thus: Scratch migration assay (PDAC). It is filed as cell-based, human. Conditions: 5m 2 nM, PTX 4 nM, 48 h. On the procedure: The Mia PaCa-2 cells (25,000 cells/well) were seeded in 96-well plates and allowed to adhere overnight. At 80-90% confluence, scratch was made with a wound maker. After washing off the debris, medium was replaced and tested compounds were added. Cells were live monitored with IncuCyte and pictures obtained every 2 h. Compared with the control, the wound width of cells under different treatment conditions was quantified according to the endpoint width over starting point.

A further series deals with A-253 and Detroit 562. The series can be described thus: Cytotoxicity in head and neck cancer cell lines. It is filed as cell-based. The settings on record: Homo sapiens; FIG. 39A; read-out: IC50 values, range over A-253 and Detroit 562. The protocol: A panel of dihydroquinoxalinones were tested in two head and neck cancer cell lines, A-253 and Detroit 562. A-253 cells are a human salivary epidermoid carcinoma cell line, whereas Detroit 562 is a head and neck squamous cell carcinoma (HNSCC). Oral cancer is the most common type of head and neck cancer and more than 90% of oral cancers are either oral or oropharyngeal squamous cell carcinoma (SCC). A major clinical dilemma is chemotherapy efficiency targeted for head and neck squamous cell carcinoma (HNSCC). The inability to successfully complete cancer treatment utilizing a standard surgical approach due to an advanced stage of HNSCC and/or resistance of SCC cells to conventional chemotherapy and/or radiotherapy leads to a continuous search for new compounds with cytostatic activity and minor side effects.
FIGS. 39B and 39C illustrate the graphical representation of the data. […] For example, at treatment levels as low of 0.5 nM, 12k was able to prevent head and neck cancer cell proliferation almost completely, whereas it required 5 nM of 17ya to achieve similar antiproliferation.

Series [1] addresses T1, tubulin protein from bovine brain (Bos taurus, UniProt P81947+Q6B856).
T1 construct: tubulin protein from bovine brain origin; purchased Cytoskeleton, Denver, Colo; host or cells: bovine brain
The series is described as follows: Tubulin polymerization assay (FIG. 5A). It is filed as biochemical. Conditions: 10 μM, cell-free. On the procedure:
Tubulin polymerization reaction was initiated by adding 100 μL of tubulin protein from bovine brain origin (3 mg/ml, Cytoskeleton, Denver, Colo.) into 10 μM of test compounds in general tubulin buffer (80 mM PIPES, 2.0 mM MgCl2, 0.5 mM EGTA, and 1 mM GTP) according to the manufacturer protocol. The reaction kinetics were recorded in every thirty seconds for 1 h at 37° C. and a microplate reader equipped with absorbance settings at 340 nm wavelength was used for this purpose. The experiment was performed in duplicates.

Series [2] relates to MDA-MB-231/VxR xenografts. The series can be described thus: Orthotopic MDA-MB-231/VxR xenograft model. Conditions: 5m IV 1×/wk; Compound 17ya 20 mg/kg 3×/wk. The format is in vivo, NSG mice.
In the next series the test system is DU-145/VxR xenografts. On the set-up: species or system NSG mice. The settings on record: mouse, in vivo.
Series [3] concerns MDA-MB-231 BrM2 brain metastases.
Series [4] is described as follows: Microsomal stability assay. The settings on record: Table 3; liver microsomes; mean (% CV). A general note: Liver microsomes are vesicles of endoplasmic reticulum, rich in cytochrome P450 enzymes.
The subject of the next series is A549. The series can be described thus: cells. The settings on record: Homo sapiens, A549, read-out: IC50 ± SEM (nM) A549.
A short description of series [5]: Microsomal stability assay. The settings on record: Table 3; liver microsomes; mean (% CV). This is another data set of the same source.
For another series, the system named is PC3. The series is described as follows: Cytotoxicity assay (MTS, 72 h). The format is cell-based. Conditions: Homo sapiens, PC-3; Table 6; read-out: IC50 (nM) Prostate cancer PC3. The source says: Cytotoxicity Assay. […] Each experiment consisted of four replicates.
The test system of a further series is Mia PaCa-2. The series can be described thus: Cytotoxicity assay (MTS, 72 h). The settings on record: Homo sapiens, Table 6, read-out: IC50 (nM) Pancreatic cancer Mia PaCa-2. The format is cell-based.
The subject of another series is A375. The series can be described thus: Cytotoxicity assay (MTS, 72 h). Conditions: Homo sapiens.
The test system of a further series is DU-145. The series can be described thus: Cytotoxicity assay (MTS, 72 h). The settings on record: Homo sapiens, DU-145, read-out: IC50 ± SEM (nM) DU-145; Table 2. The format is cell-based.

“Also recorded” adds a separate entry of the source. Like-named read-outs stand apart in the source and are kept apart here.

T1 sequence (P81947 whole entry): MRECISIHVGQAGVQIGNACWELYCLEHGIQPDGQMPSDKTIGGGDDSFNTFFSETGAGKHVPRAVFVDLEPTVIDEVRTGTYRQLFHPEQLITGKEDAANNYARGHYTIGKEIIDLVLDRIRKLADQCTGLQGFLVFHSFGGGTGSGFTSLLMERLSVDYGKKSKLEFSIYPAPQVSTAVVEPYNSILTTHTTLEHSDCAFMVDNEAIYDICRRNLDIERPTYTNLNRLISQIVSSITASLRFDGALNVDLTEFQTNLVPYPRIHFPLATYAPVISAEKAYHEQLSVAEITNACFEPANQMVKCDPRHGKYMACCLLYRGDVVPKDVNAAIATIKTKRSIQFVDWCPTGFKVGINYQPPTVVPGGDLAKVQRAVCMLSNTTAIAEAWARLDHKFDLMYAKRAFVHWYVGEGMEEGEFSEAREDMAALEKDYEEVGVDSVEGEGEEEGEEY
T1 sequence (Q6B856 whole entry): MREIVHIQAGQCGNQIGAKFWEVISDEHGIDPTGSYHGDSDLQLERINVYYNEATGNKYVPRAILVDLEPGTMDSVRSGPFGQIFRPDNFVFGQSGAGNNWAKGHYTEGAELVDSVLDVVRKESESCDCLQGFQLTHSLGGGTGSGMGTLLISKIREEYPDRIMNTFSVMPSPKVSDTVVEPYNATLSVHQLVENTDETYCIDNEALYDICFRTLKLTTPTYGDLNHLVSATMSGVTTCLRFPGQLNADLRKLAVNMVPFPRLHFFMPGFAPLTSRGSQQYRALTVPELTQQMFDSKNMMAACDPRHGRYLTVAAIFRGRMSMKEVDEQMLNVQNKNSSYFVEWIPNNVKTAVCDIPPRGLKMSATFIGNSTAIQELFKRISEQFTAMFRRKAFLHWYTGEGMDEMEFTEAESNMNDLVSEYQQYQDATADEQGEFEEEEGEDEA

What is called IC50 is the concentration that inhibits the measured activity by half. For the compound `COc1ccc2c(c1)NC(=O)CN2c1nc(C)nc2c1CCC2` [Compound 5m, 7-methoxy-4-(2-methyl-6,7-dihydro-5H-cyclopenta[d]pyrimidin-4-yl)-3,4-dihydroquinoxalin-2(1H)-one], in the series with PANC-1-Luc xenografts (1 mg/kg or 2 mg/kg i.v., 1 dose/week for 7 weeks), the “xenograft tumor growth” value is “dose-dependent and significant inhibition of xenograft tumor growth; also recorded: dose-dependently inhibited xenograft tumor growth”. Also, the “body weight vs control” value in the series with PANC-1-Luc xenografts (49 days, two doses) is given as “no differences seen in body weight”. In addition, the “cell migration / wound healing” value in the series on Mia PaCa-2 cells is “more effectively inhibited wound healing”. Also, the IC50 in the series on A-253 and Detroit 562 is 0.52 to 3.2 nM; in the series with A549, 4.5 ± 0.8 nM. Besides, the “effect on microtubule polymerization” value in [1] is listed as “significantly inhibited microtubule polymerization”. In series [2], the “tumor growth of MDA-MB-231/VxR xenografts” value is reported as “flat tumor growth curve”. Besides, the “endpoint average tumor volume” value with DU-145/VxR xenografts is reported as around 80 mm^3. In series [3] (1 minute capture, vehicle 6.01×10^7), the “photon flux in ex vivo brain of representative animal” value is 1.51×10^7 p/s. For the same compound, the “body weight” value in [3] (Experiment 1) is recorded as “maintain body weight through day 24”. In addition, the “extracranial metastasis, ex vivo photon flux” value in series [3] (bone, lungs, spleen) is “statistically reduced metastasis to bone, lungs, and spleen”. The “adverse effects at initial dose” value in [3] (mouse, in vivo) was “mice lost weight and had diarrhea”. The “Metabolic stability in human t1/2” value in series [4] is 53.6 min. Moreover, the “Metabolic stability in mouse t1/2” value in [5] came out at 14.4 min.

Turning to `CCNc1nc2c(c(N3CC(=O)Nc4cc(OC)ccc43)n1)CCC2` [Compound 5v, 4-(2-(ethylamino)-6,7-dihydro-5H-cyclopenta[d]pyrimidin-4-yl)-7-methoxy-3,4-dihydroquinoxalin-2(1H)-one], the IC50 in the series with PC3 was 1.7 ± 0.1 nM; in the series on Mia PaCa-2, 3.4 ± 0.4 nM; with A375 (A-375, read-out: IC50 (nM) Melanoma A375, Table 1), 0.7 ± 0.1 nM; with A375 (A-375, read-out: IC50 (nM) Melanoma Cancer A375, Table 6) it was around 1.6 nM; with A375 (A-375, read-out: IC50 ± SEM (nM) A375, Table 2), 0.4 ± 0.04 nM; in the series on DU-145 it was 1.8 ± 0.3 nM.
